# The supplement of paper PMC11061612
# Tests used:
# Test in all cases: Bliss excess, mean over the matrix (fraction); higher = more synergy
# [1] = tested on: JIMT-1 (Breast Carcinoma)
# In short: (§1)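 Cell lines grown in DMEM/F12 or RPMI with 10% FBS were plated in 1536-well plates and held 24 hours at 37°C, 5% CO2 before 72 hours of exposure to two-drug dose matrices, with DMSO typically at 0.2%. CellTiter-Glo 2.0 luminescence gave viability, which was converted to inhibition. Vehicle wells were set to 0 and blank wells to 1. Combination Emax is the second-highest inhibition in the matrix, and Bliss excess is the observed combination effect minus the expected EA + EB − EA·EB, where EA and EB are the single-agent effects.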
# [2] = tested on: G-402 (Other Solid Carcinomas)
# In short: as §1
# 5637 (Bladder Carcinoma) = tested on: 5637 (Bladder Carcinoma)
# In short: as §1
# AU565 (Breast Carcinoma) = tested on: AU565 (Breast Carcinoma)
# In short: as §1
# [3] = tested on: JVM-2 (B-Cell Non-Hodgkin's Lymphoma)
# In short: as §1
# [4] = tested on: OACp4C (Esophageal Adenocarcinoma)
# In short: as §1
# [5] = tested on: LS-411N (Colorectal Carcinoma)
# In short: as §1
# [6] = tested on: HCC1395 (Breast Carcinoma)
# In short: as §1
# [7] = tested on: 22RV1 (Prostate Carcinoma)
# In short: as §1
# [8] = tested on: CESS (Acute Myeloid Leukemia)
# In short: as §1
# [9] = tested on: GCT (Other Solid Carcinomas)
# In short: as §1
# IM-9 (Non-Cancerous) = tested on: IM-9 (Non-Cancerous)
# In short: as §1
# [10] = tested on: CA46 (Burkitt's Lymphoma)
# In short: as §1
# A101D (Melanoma) = tested on: A101D (Melanoma)
# In short: as §1
# [11] = tested on: A253 (Head and Neck Carcinoma)
# In short: as §1
# EW-16 (Ewing's Sarcoma) = tested on: EW-16 (Ewing's Sarcoma)
# In short: as §1
# [12] = tested on: GA-10 (Burkitt's Lymphoma)
# In short: as §1
# [13] = tested on: MHH-ES-1 (Ewing's Sarcoma)
# In short: as §1
# [14] = tested on: KYSE-140 (Esophageal Squamous Cell Carcinoma)
# In short: as §1
# [15] = tested on: ESO26 (Esophageal Adenocarcinoma)
# In short: as §1
Structure (SMILES),Bliss excess [1],Bliss excess [2],Bliss excess (5637 (Bladder Carcinoma)),Bliss excess (AU565 (Breast Carcinoma)),Bliss excess [3],Bliss excess [4],Bliss excess [5],Bliss excess [6],Bliss excess [7],Bliss excess [8],Bliss excess [9],Bliss excess (IM-9 (Non-Cancerous)),Bliss excess [10],Bliss excess (A101D (Melanoma)),Bliss excess [11],Bliss excess (EW-16 (Ewing's Sarcoma)),Bliss excess [12],Bliss excess [13],Bliss excess [14],Bliss excess [15]
"Cc1c2c(nn1C)CSCc1cc(n(C)n1)CSc1cc(c3ccccc3c1)OCCCc1c(C(=O)O)n(C)c3c-2c(Cl)ccc13 [AZD5991] + C[C@@H]1COCCN1C2=NC(=NC(=C2)C3(CC3)[S@](=N)(=O)C)C4=C5C=CNC5=NC=C4 [AZD6738] (first compound max 1 µM, 7x7, partner max 10 µM)",0.0789,0.0386,0.0305,0.0006,-0.0128,0.0108,0.0069,0.0307,0.0449,0.066,0.06,-0.0532,-0.0252,0.0342,0.0364,-0.0304,-0.018,0.0135,0.0119,0.0276
"Cc1c2c(nn1C)CSCc1cc(n(C)n1)CSc1cc(c3ccccc3c1)OCCCc1c(C(=O)O)n(C)c3c-2c(Cl)ccc13 [AZD5991] + C1CN(CCC1(C(=O)N[C@@H](CCO)C2=CC=C(C=C2)Cl)N)C3=NC=NC4=C3C=CN4 [Capivasertib] (first compound max 1 µM, 7x7, partner max 3 µM)",-0.0056,0.0445,-0.004,0.0218,0.0245,0.019,-0.0038,-0.003,0.0404,-0.0114,-0.0219,-0.0616,0.0205,0.0252,0.0473,-0.0456,0.0138,0.0008,0.0196,-0.0014
"CC(=O)c1c(C)c2cnc(Nc3ccc(N4CCNCC4)cn3)nc2n(C2CCCC2)c1=O [Palbociclib] + Cn1cnc2c(F)c(Nc3ccc(Br)cc3Cl)c(C(=O)NOCCO)cc21 [Selumetinib] (first compound max 10 µM, 7x7, partner max 10 µM)",-0.0436,0.0399,-0.0288,0.0052,0.0271,-0.0359,0.0131,-0.0529,0.0328,0.0202,-0.0369,0.0248,-0.0504,-0.0907,-0.0864,-0.0095,-0.0193,-0.0061,-0.0387,0.0104
"CC(=O)c1c(C)c2cnc(Nc3ccc(N4CCNCC4)cn3)nc2n(C2CCCC2)c1=O [Palbociclib] + Cc1c2c(nn1C)CSCc1cc(n(C)n1)CSc1cc(c3ccccc3c1)OCCCc1c(C(=O)O)n(C)c3c-2c(Cl)ccc13 [AZD5991] (first compound max 10 µM, 7x7, partner max 1 µM)",-0.0348,0.0106,-0.0342,-0.0211,-0.0206,-0.064,-0.0397,-0.0403,-0.0781,-0.0341,-0.049,0.0229,-0.0242,-0.0091,-0.134,-0.0356,-0.0211,-0.008,-0.0814,-0.0467
"C=CCn1c(=O)c2cnc(Nc3ccc(N4CCN(C)CC4)cc3)nc2n1-c1cccc(C(C)(C)O)n1 [AZD1775] + C1CN(CCC1(C(=O)N[C@@H](CCO)C2=CC=C(C=C2)Cl)N)C3=NC=NC4=C3C=CN4 [Capivasertib] (first compound max 3 µM, partner max 3 µM)",0.0069,-0.0346,0.0064,-0.0494,-0.0591,0.0005,-0.0551,-0.0085,-0.0348,-0.0359,0.004,-0.0157,-0.0101,0.0152,0.0248,-0.0481,0.0431,-0.034,-0.0859,-0.0424
"CCc1c2c(nc3ccc(O)cc13)-c1cc3c(c(=O)n1C2)COC(=O)[C@]3(O)CC [SN-38] + CN(C)CCCOc1ccc(-c2ccc3ncc4c(c3c2)n(C2CCOCC2)c(=O)n4C)cn1 [AZD0156] (first compound max 0.3 µM, 7x7, partner max 1 µM)",0.0056,0.003,0.0507,-0.0621,0.0156,0.0666,0.0079,-0.0024,0.0403,0.0031,0.0183,0.0891,0.0951,0.0006,-0.0019,0.0385,0.0494,0.0449,0.0176,-0.0042
"C=CCn1c(=O)c2cnc(Nc3ccc(N4CCN(C)CC4)cc3)nc2n1-c1cccc(C(C)(C)O)n1 [AZD1775] + C[C@@H]1COCCN1C2=NC(=NC(=C2)C3(CC3)[S@](=N)(=O)C)C4=C5C=CNC5=NC=C4 [AZD6738] (first compound max 1 µM, partner max 10 µM)",-0.01,-0.0458,0.007,-0.0083,0.0203,-0.028,0.0732,0.0091,-0.0536,0.0388,0.0157,0.0274,0.0061,-0.0089,0.0764,0.0132,0.0096,-0.0135,0.0259,0.0102
"Cc1c2c(nn1C)CSCc1cc(n(C)n1)CSc1cc(c3ccccc3c1)OCCCc1c(C(=O)O)n(C)c3c-2c(Cl)ccc13 [AZD5991] + C=CCn1c(=O)c2cnc(Nc3ccc(N4CCN(C)CC4)cc3)nc2n1-c1cccc(C(C)(C)O)n1 [AZD1775] (first compound max 1 µM, partner max 1 µM)",0.0464,0.051,-0.0352,0.0127,-0.0165,0.0186,0.0376,-0.0172,-0.003,-0.0098,0.0301,-0.054,-0.0627,0.0106,0.0398,-0.0392,-0.053,-0.0496,0.0145,0.0072
"NC1(C(=O)N[C@@H](CCO)c2ccc(Cl)cc2)CCN(c2ncnc3[nH]ccc23)CC1 [Capivasertib] + C[C@@H]1COCCN1C2=NC(=NC(=C2)C3(CC3)[S@](=N)(=O)C)C4=C5C=CNC5=NC=C4 [AZD6738] (first compound max 10 µM, 7x7, partner max 10 µM)",-0.0321,-0.017,-0.0846,-0.0126,-0.0607,-0.0402,-0.0605,-0.0687,-0.0527,0.0044,-0.0719,-0.0514,0.0324,-0.107,-0.0163,0.0116,-0.0303,-0.0259,-0.0846,-0.0364
"Cn1cnc2c(F)c(Nc3ccc(Br)cc3Cl)c(C(=O)NOCCO)cc21 [Selumetinib] + CC(C)n1c(=O)n(C)c2cnc3cc(F)c(-c4ccc(OCCCN5CCCCC5)nc4)cc3c21 [AZD1390] (first compound max 10 µM, 7x7, partner max 0.3 µM)",-0.0471,-0.0095,-0.0226,0.005,0.0102,0.0048,-0.0107,-0.0327,-0.0538,-0.0355,-0.0054,-0.0603,-0.006,-0.0246,-0.0504,-0.0582,-0.0227,-0.0328,-0.0337,-0.0471
"Cc1c2c(nn1C)CSCc1cc(n(C)n1)CSc1cc(c3ccccc3c1)OCCCc1c(C(=O)O)n(C)c3c-2c(Cl)ccc13 [AZD5991] + Cc1cc2ncnn2cc1Nc1ncc2c(n1)n(C1CCOCC1)c(=O)n2C [AZD7648] (first compound max 1 µM, 7x7, partner max 10 µM)",-0.0541,0.0229,-0.0232,-0.0172,-0.046,0.008,-0.0492,-0.0497,-0.0528,0.0437,-0.0702,0.014,0.0187,-0.0897,-0.0286,-0.0174,-0.0508,-0.0323,-0.0345,-0.0372
"COc1cccc(OCCCN)c1-c1cc(Nc2cnc(C#N)cn2)n[nH]1 [Prexasertib] + CCc1c2c(nc3ccc(O)cc13)-c1cc3c(c(=O)n1C2)COC(=O)[C@]3(O)CC [SN-38] (first compound max 1 µM, 7x7, partner max 0.3 µM)",0.0096,-0.0336,0.0891,-0.0213,-0.0493,0.0186,0.0331,-0.0466,-0.0649,-0.0364,-0.0185,0.0077,0.0035,-0.0308,0.0296,-0.0002,0.0088,0.0134,-0.0076,0.0483
"CN(CCO)CC[C@H](CSc1ccccc1)Nc1ccc(S(=O)(=O)NC(=O)c2ccc(N3CCC([C@@H](O)c4ccccc4-c4ccc(Cl)cc4)CC3)cc2)cc1S(=O)(=O)C(F)(F)F [AZD4320] + CN(C)CCCOc1ccc(-c2ccc3ncc4c(c3c2)n(C2CCOCC2)c(=O)n4C)cn1 [AZD0156] (first compound max 1 µM, 7x7, partner max 1 µM)",-0.0344,-0.0458,-0.0311,0.0203,0.0248,-0.0257,-0.0009,-0.0269,-0.0416,-0.0814,-0.0401,-0.0621,0.0092,-0.0298,0.0114,-0.003,0.0026,-0.0062,-0.0257,-0.025
"CS(=O)(=O)CCNCc1ccc(-c2ccc3ncnc(Nc4ccc(OCc5cccc(F)c5)c(Cl)c4)c3c2)o1 [Lapatinib] + C[C@@H](Oc1cc(-c2cnn(C3CCNCC3)c2)cnc1N)c1c(Cl)ccc(F)c1Cl [Crizotinib] (first compound max 10 µM, 7x7, partner max 10 µM)",0.0444,-0.0517,-0.0285,-0.0287,-0.0131,-0.0355,-0.033,-0.0724,-0.108,-0.0826,-0.0251,-0.0378,0.0216,-0.0587,-0.0221,-0.0562,-0.0218,-0.0333,-0.0083,-0.0293
